Source: patent US5376684A, “Aminoalkanephosphinic acids and salts thereof” (Ciba-Geigy Corporation, priority 1991, dated 1994)

How the values were obtained:
epileptic Wistar rats = details: cited from earlier work
pyramidal cells = assay: Penicillin-induced "epileptic" hippocampus section preparation; assay type: cell-based; details: concentration of 6 μM
Experimental: The novel GABAB -antagonists according to the invention interact at the GABAB -receptor with IC50 values of approximately 10^-8 M (mol/l) and above in the corticocerebral membranes of rats. […] The antagonism towards baclofen can also be shown in vitro in electrophysiological models, for example in the penicillin-induced "epileptic" hippocampus section preparation in which baclofen in a concentration of 6 μM (micromol/liter) inhibits "epilepsy-like" discharges from pyramidal cells. The compounds according to the invention act as antagonists of baclofen action in concentrations of about 10 to about 100 μM (micromol/liter). In vivo the antagonism can be shown by ionto-phoresis of baclofen in rat cerebral cortex and by systemic use of antagonists in doses of from 10 to 100 mg/kg. In doses of about 30 mg/kg, antagonism occurs towards the muscle-relaxant action of baclofen, which is measured in the Rotarod model.

| SMILES | doses that reduce the spike and wave discharges in dependence upon dosage (epileptic Wistar rats) [mg/kg] | other results |
| --- | --- | --- |
| CCC1(c2ccccc2)C(=O)NC(=O)NC1=O [Phenobarbitone] | – | effect at 20 mg/kg (epileptic Wistar rats; 20 mg/kg): ineffective |
| O=C1NC(=O)C(c2ccccc2)(c2ccccc2)N1 [phenytoin] | – | effect on spike and wave discharges / attacks (epileptic Wistar rats): ineffective or worsen the attacks at higher doses |
| CN1C(=O)CN=C(c2ccccc2)c2cc(Cl)ccc21 [diazepam] | ≥ 0.5 | – |
| CCC1(C)CC(=O)NC1=O (centres unmarked) [ethosuximide] | ≥ 25 | – |
| NC(=O)N1c2ccccc2C=Cc2ccccc21 [Carbamazepine] | – | effect on spike and wave discharges / attacks (epileptic Wistar rats): ineffective or worsen the attacks at higher doses |
| CN1C(=O)OC(C)(C)C1=O [trimethadione] | ≥ 50 | – |
| CCCC(CCC)C(=O)[O-].[Na+] [sodium valproate] | ≥ 50 | – |
| NCC(CC(=O)O)c1ccc(Cl)cc1 (centres unmarked) [baclofen] | – | effect on "epilepsy-like" discharges from pyramidal cells (pyramidal cells): inhibits |
